Measurements published in patent EP3375430A1, “FRAGRANCE COMPOSITIONS” (Takasago International Corporation, priority 2017, dated 2018).
One block for each compound: values may come before it.

What was measured:
[1] = Headspace concentration of fragrance ingredients over blotter (thermal desorption GC-MS); format: physicochemical; conditions: fragrance TAK;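 for headspace concentration in composition C1 compared to control EdT1: C1 is an invention composition and EdT1 a conventional EdT of fragrance TAK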
Outline: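 Fragrance (100µL) applied to a 10 cm perfumers' blotter held on a 32°C hot plate, equilibrated 5 min; headspace drawn through Tenax TA tubes at 17mL/min until 280mL collected, repeated at later sampling times. Tubes thermally desorbed splitless onto HP-5MS column, GC-MS detection, mass range 35 to 350.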

[2] = Amount of fragrance ingredients retained on paper blotter after evaporation (ethanol extraction, GC-MS); format: physicochemical
Outline: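 100 µL of fragrance formulation applied to paper blotters kept at 32°C open to air; at each time three blotters extracted 1 h in ethanol with methyl decanoate internal standard and analysed by GC-MS (HP-5MS, 50–280°C). Amounts averaged over triplicates and expressed as percent of time-zero level.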

[3] = Table 3, fragrance TAK in C1, 15 min, 32°C
[4] = Table 3, fragrance TAK in C1, 60 min, 32°C
[5] = Table 3, fragrance TAK in C1, 120 min, 32°C
[6] = Table 3, fragrance TAK in C1, 240 min, 32°C
[7] = Table 3, fragrance TAK in C1, 480 min, 32°C
[8] = Table 3, fragrance TAK in EdT1, 15 min, 32°C
[9] = Table 3, fragrance TAK in EdT1, 60 min, 32°C
[10] = Table 3, fragrance TAK in EdT1, 120 min, 32°C
[11] = Table 3, fragrance TAK in EdT1, 240 min, 32°C
[12] = Table 3, fragrance TAK in EdT1, 480 min, 32°C
[13] = Table 3, fragrance TAK in EdT1 or C1, T0, set at 100% (normalisation)
[14] = Table 4, fragrance TAK in C2, 15 min, 32°C
[15] = Table 4, fragrance TAK in C2, 480 min, 32°C
[16] = Table 4, fragrance TAK in EdT1, 15 min, 32°C
[17] = Table 4, fragrance TAK in EdT1, 480 min, 32°C
[18] = Table 4, fragrance TAK in EdT1 or C2, T0, set at 100% (normalisation)
[19] = Table 5, fragrance TAK in C3, 15 min, 32°C
[20] = Table 5, fragrance TAK in C3, 60 min, 32°C
[21] = Table 5, fragrance TAK in C3, 120 min, 32°C
[22] = Table 5, fragrance TAK in C3, 240 min, 32°C
[23] = Table 5, fragrance TAK in C3, 480 min, 32°C
[24] = Table 5, fragrance TAK in C3, 1440 min, 32°C
[25] = Table 5, fragrance TAK in EdT1, 15 min, 32°C
[26] = Table 5, fragrance TAK in EdT1, 60 min, 32°C
[27] = Table 5, fragrance TAK in EdT1, 120 min, 32°C
[28] = Table 5, fragrance TAK in EdT1, 240 min, 32°C
[29] = Table 5, fragrance TAK in EdT1, 480 min, 32°C
[30] = Table 5, fragrance TAK in EdT1, 1440 min, 32°C
[31] = Table 5, fragrance TAK in EdT1 or C3, T0, set at 100% (normalisation)
[32] = Table 6, fragrance TAK in C4, 15 min, 32°C
[33] = Table 6, fragrance TAK in C4, 60 min, 32°C
[34] = Table 6, fragrance TAK in C4, 120 min, 32°C
[35] = Table 6, fragrance TAK in C4, 240 min, 32°C
[36] = Table 6, fragrance TAK in C4, 480 min, 32°C
[37] = Table 6, fragrance TAK in EdT1, 15 min, 32°C
[38] = Table 6, fragrance TAK in EdT1, 60 min, 32°C
[39] = Table 6, fragrance TAK in EdT1, 120 min, 32°C
[40] = Table 6, fragrance TAK in EdT1, 240 min, 32°C
[41] = Table 6, fragrance TAK in EdT1, 480 min, 32°C
[42] = Table 6, fragrance TAK in EdT1 or C4, T0, set at 100% (normalisation)

headspace presence of ingredient ([1]; after 1 hour, both control EdT1 and composition C1, Figure 2): lost
amount of fragrance ingredient retained on blotter (percentage of the initial amount) [2, 3]: 18%
amount of fragrance ingredient retained on blotter (percentage of the initial amount) [2, 4]: 1%
amount of fragrance ingredient retained on blotter (percentage of the initial amount) [2, 5]: 1%
amount of fragrance ingredient retained on blotter (percentage of the initial amount) [2, 6]: 1%
amount of fragrance ingredient retained on blotter (percentage of the initial amount) [2, 7]: <1%
amount of fragrance ingredient retained on blotter (percentage of the initial amount) [2, 8]: 1%
amount of fragrance ingredient retained on blotter (percentage of the initial amount) [2, 9]: <1%
amount of fragrance ingredient retained on blotter (percentage of the initial amount) [2, 10]: <1%
amount of fragrance ingredient retained on blotter (percentage of the initial amount) [2, 11]: <1%
amount of fragrance ingredient retained on blotter (percentage of the initial amount) [2, 12]: <1%
amount of fragrance ingredient retained on blotter (percentage of the initial amount) [2, 13]: 100%
amount of fragrance ingredient retained on blotter (percentage of the initial amount) [2, 14]: 29%
amount of fragrance ingredient retained on blotter (percentage of the initial amount) [2, 15]: <1%
amount of fragrance ingredient retained on blotter (percentage of the initial amount) [2, 16]: 2%
amount of fragrance ingredient retained on blotter (percentage of the initial amount) [2, 17]: <1%
amount of fragrance ingredient retained on blotter (percentage of the initial amount) [2, 18]: 100%
amount of fragrance ingredient retained on blotter (percentage of the initial amount) [2, 19]: 19%
amount of fragrance ingredient retained on blotter (percentage of the initial amount) [2, 20]: <1%
amount of fragrance ingredient retained on blotter (percentage of the initial amount) [2, 21]: <1%
amount of fragrance ingredient retained on blotter (percentage of the initial amount) [2, 22]: <1%
amount of fragrance ingredient retained on blotter (percentage of the initial amount) [2, 23]: <1%
amount of fragrance ingredient retained on blotter (percentage of the initial amount) [2, 24]: <1%
amount of fragrance ingredient retained on blotter (percentage of the initial amount) [2, 25]: 1%
amount of fragrance ingredient retained on blotter (percentage of the initial amount) [2, 26]: <1%
amount of fragrance ingredient retained on blotter (percentage of the initial amount) [2, 27]: <1%
amount of fragrance ingredient retained on blotter (percentage of the initial amount) [2, 28]: <1%
amount of fragrance ingredient retained on blotter (percentage of the initial amount) [2, 29]: <1%
amount of fragrance ingredient retained on blotter (percentage of the initial amount) [2, 30]: <1%
amount of fragrance ingredient retained on blotter (percentage of the initial amount) [2, 31]: 100%
amount of fragrance ingredient retained on blotter (percentage of the initial amount) [2, 32]: 17%
amount of fragrance ingredient retained on blotter (percentage of the initial amount) [2, 33]: <1%
amount of fragrance ingredient retained on blotter (percentage of the initial amount) [2, 34]: 1%
amount of fragrance ingredient retained on blotter (percentage of the initial amount) [2, 35]: 1%
amount of fragrance ingredient retained on blotter (percentage of the initial amount) [2, 36]: 1%
amount of fragrance ingredient retained on blotter (percentage of the initial amount) [2, 37]: 1%
amount of fragrance ingredient retained on blotter (percentage of the initial amount) [2, 38]: <1%
amount of fragrance ingredient retained on blotter (percentage of the initial amount) [2, 39]: <1%
amount of fragrance ingredient retained on blotter (percentage of the initial amount) [2, 40]: <1%
amount of fragrance ingredient retained on blotter (percentage of the initial amount) [2, 41]: <1%
amount of fragrance ingredient retained on blotter (percentage of the initial amount) [2, 42]: 100%
amount of fragrance ingredient retained on blotter (percentage of the initial amount) ([2]; Table 9, fragrance COM1 in C5, T0 + 15 min): 11.32%
amount of fragrance ingredient retained on blotter (percentage of the initial amount) ([2]; Table 9, fragrance COM1 in C5, T0 + 480 min): <1%
amount of fragrance ingredient retained on blotter (percentage of the initial amount) ([2]; Table 9, fragrance COM1 in C5, T0 +1440 min): <1%
amount of fragrance ingredient retained on blotter (percentage of the initial amount) ([2]; Table 9, fragrance COM1 in C6, T0 + 15 min): 6.6%
amount of fragrance ingredient retained on blotter (percentage of the initial amount) ([2]; Table 9, fragrance COM1 in C6, T0 + 480 min): <1%
amount of fragrance ingredient retained on blotter (percentage of the initial amount) ([2]; Table 9, fragrance COM1 in C6, T0 +1440 min): <1%
amount of fragrance ingredient retained on blotter (percentage of the initial amount) ([2]; Table 9, fragrance COM1 in EdT2, C5 or C6, T0, set at 100% (normalisation)): 100%
amount of fragrance ingredient retained on blotter (percentage of the initial amount) ([2]; Table 9, fragrance COM1 in EdT2, T0 + 15 min): 1.33%
amount of fragrance ingredient retained on blotter (percentage of the initial amount) ([2]; Table 9, fragrance COM1 in EdT2, T0 + 480 min): <1%
amount of fragrance ingredient retained on blotter (percentage of the initial amount) ([2]; Table 9, fragrance COM1 in EdT2, T0 +1440 min): <1%
SMILES: C=C(C)[C@H]1CC=C(C)CC1 [Limonene]

headspace concentration in composition C1 compared to control EdT1 ([1]; T0 + 4h, Figure 3): significantly greater
headspace concentration in composition C14 compared to control EdT1 ([1]; T0+4h and T0+8h, Figures 17 and 18): significantly greater
headspace concentration in composition C15 compared to control EdT1 ([1]; T0+4h and T0+8h, Figures 20 and 21, difference significant for linalool, linalyl acetate and Verdox™): greater
headspace concentration in composition C1 compared to control EdT1 ([1]; T0 + 8h, Figure 4): much greater
headspace concentration in composition C1 compared to control EdT1 ([1]; after 1 hour, Figure 2): greater
amount of fragrance ingredient retained on blotter (percentage of the initial amount) [2, 3]: 80%
amount of fragrance ingredient retained on blotter (percentage of the initial amount) [2, 4]: 61%
amount of fragrance ingredient retained on blotter (percentage of the initial amount) [2, 5]: 35%
amount of fragrance ingredient retained on blotter (percentage of the initial amount) [2, 6]: 13%
amount of fragrance ingredient retained on blotter (percentage of the initial amount) [2, 7]: 3%
amount of fragrance ingredient retained on blotter (percentage of the initial amount) [2, 8]: 57%
amount of fragrance ingredient retained on blotter (percentage of the initial amount) [2, 9]: 9%
amount of fragrance ingredient retained on blotter (percentage of the initial amount) [2, 10]: 1%
amount of fragrance ingredient retained on blotter (percentage of the initial amount) [2, 11]: 1%
amount of fragrance ingredient retained on blotter (percentage of the initial amount) [2, 12]: <1%
amount of fragrance ingredient retained on blotter (percentage of the initial amount) [2, 13]: 100%
amount of fragrance ingredient retained on blotter (percentage of the initial amount) [2, 14]: 92%
amount of fragrance ingredient retained on blotter (percentage of the initial amount) [2, 15]: 4%
amount of fragrance ingredient retained on blotter (percentage of the initial amount) [2, 16]: 58%
amount of fragrance ingredient retained on blotter (percentage of the initial amount) [2, 17]: 3%
amount of fragrance ingredient retained on blotter (percentage of the initial amount) [2, 18]: 100%
amount of fragrance ingredient retained on blotter (percentage of the initial amount) [2, 19]: 85%
amount of fragrance ingredient retained on blotter (percentage of the initial amount) [2, 20]: 61%
amount of fragrance ingredient retained on blotter (percentage of the initial amount) [2, 21]: 37%
amount of fragrance ingredient retained on blotter (percentage of the initial amount) [2, 22]: 18%
amount of fragrance ingredient retained on blotter (percentage of the initial amount) [2, 23]: 3%
amount of fragrance ingredient retained on blotter (percentage of the initial amount) [2, 24]: 1%
amount of fragrance ingredient retained on blotter (percentage of the initial amount) [2, 25]: 57%
amount of fragrance ingredient retained on blotter (percentage of the initial amount) [2, 26]: 9%
amount of fragrance ingredient retained on blotter (percentage of the initial amount) [2, 27]: 1%
amount of fragrance ingredient retained on blotter (percentage of the initial amount) [2, 28]: <1%
amount of fragrance ingredient retained on blotter (percentage of the initial amount) [2, 29]: <1%
amount of fragrance ingredient retained on blotter (percentage of the initial amount) [2, 30]: <1%
amount of fragrance ingredient retained on blotter (percentage of the initial amount) [2, 31]: 100%
amount of fragrance ingredient retained on blotter (percentage of the initial amount) [2, 32]: 81%
amount of fragrance ingredient retained on blotter (percentage of the initial amount) [2, 33]: 61%
amount of fragrance ingredient retained on blotter (percentage of the initial amount) [2, 34]: 28%
amount of fragrance ingredient retained on blotter (percentage of the initial amount) [2, 35]: 13%
amount of fragrance ingredient retained on blotter (percentage of the initial amount) [2, 36]: 8%
amount of fragrance ingredient retained on blotter (percentage of the initial amount) [2, 37]: 57%
amount of fragrance ingredient retained on blotter (percentage of the initial amount) [2, 38]: 9%
amount of fragrance ingredient retained on blotter (percentage of the initial amount) [2, 39]: 1%
amount of fragrance ingredient retained on blotter (percentage of the initial amount) [2, 40]: <1%
amount of fragrance ingredient retained on blotter (percentage of the initial amount) [2, 41]: <1%
amount of fragrance ingredient retained on blotter (percentage of the initial amount) [2, 42]: 100%
SMILES: C=CC(C)(O)CCC=C(C)C (stereo not drawn) [Linalool]
